Columns and labels:
[1] = test system: A498; assay: Growth inhibition of human A498 cells after 48 hrs by sulforhodamine B assay; format: functional; details: A498, 48 h
[2] = Growth inhibition of human COLO205 cells at 10 uM after 48 hrs by sulforhodamine B assay; format: functional; details: COLO 205, 48 h, read-out: GI
[3] = test system: NCI-H522; assay: Growth inhibition of human NCI-H522 cells at 10 uM after 48 hrs by sulforhodamine B assay; format: functional; details: NCI-H522, 48 h, read-out: GI
[4] = test system: U-251; assay: Growth inhibition of human U251 cells after 48 hrs by sulforhodamine B assay; format: functional; details: U-251, 48 h
[5] = Growth inhibition of human SF295 cells at 10 uM after 48 hrs by sulforhodamine B assay; format: functional; details: SF-295, 48 h, read-out: GI
[6] = Growth inhibition of human SF295 cells after 48 hrs by sulforhodamine B assay; format: functional; details: SF-295, 48 h
[7] = Growth inhibition of human COLO205 cells after 48 hrs by sulforhodamine B assay; format: functional; details: COLO 205, 48 h
[8] = Growth inhibition of human SNB75 cells after 48 hrs by sulforhodamine B assay; format: functional; details: SNB-75, 48 h
[9] = test system: HUVEC; assay: Inhibition of cell invasion of HUVEC at 0.1 uM after 24 hrs by crystal violet staining based Boyden chamber assay; format: functional; details: Homo sapiens
[10] = Growth inhibition of human HCT116 cells after 48 hrs by sulforhodamine B assay; format: functional; details: HCT-116, 48 h
[11] = Cytotoxicity against human OVCAR3 cells assessed as cell growth at 10 uM after 48 hrs by sulforhodamine B assay; format: functional; details: OVCAR-3, 48 h, read-out: Activity
[12] = Growth inhibition of human DU145 cells after 48 hrs by sulforhodamine B assay; format: functional; details: DU-145, 48 h
[13] = test system: SR; assay: Growth inhibition of human SR cells after 48 hrs by sulforhodamine B assay; format: functional
[14] = test system: K562; assay: Growth inhibition of human K562 cells after 48 hrs by sulforhodamine B assay; format: functional; details: K562, 48 h
[15] = Growth inhibition of human NCI-ADR-RES cells at 10 uM after 48 hrs by sulforhodamine B assay; format: functional; details: read-out: GI
[16] = Growth inhibition of human DU145 cells at 10 uM after 48 hrs by sulforhodamine B assay; format: functional; details: DU-145, 48 h, read-out: GI
[17] = test system: SK-MEL-5; assay: Growth inhibition of human SK-MEL-5 cells at 10 uM after 48 hrs by sulforhodamine B assay; format: functional; details: SK-MEL-5, 48 h, read-out: GI
[18] = Growth inhibition of human OVCAR3 cells at 10 uM after 48 hrs by sulforhodamine B assay; format: functional; details: OVCAR-3, 48 h, read-out: GI
[19] = test system: A549; assay: Growth inhibition of human A549/ATCC cells at 10 uM after 48 hrs by sulforhodamine B assay; format: functional; details: A549, 48 h, read-out: GI
[20] = test system: U-251; assay: Growth inhibition of human U251 cells at 10 uM after 48 hrs by sulforhodamine B assay; format: functional; details: U-251, 48 h, read-out: GI
[21] = Growth inhibition of human PC3 cells after 48 hrs by sulforhodamine B assay; format: functional; details: PC-3, 48 h
[22] = test system: HUVEC; assay: Cytotoxicity against HUVEC at 1 uM after 72 hrs by MTS assay; format: cell-based; details: human
[23] = Growth inhibition of human Caki1 cells after 48 hrs by sulforhodamine B assay; format: functional; details: CAKI-1, 48 h
[24] = test system: HT-29; assay: Growth inhibition of human HT-29 cells after 48 hrs by sulforhodamine B assay; format: functional; details: HT-29, 48 h
[25] = Growth inhibition of human HOP62 cells at 10 uM after 48 hrs by sulforhodamine B assay; format: functional; details: HOP-62, 48 h, read-out: GI
[26] = Growth inhibition of human HCT116 cells at 10 uM after 48 hrs by sulforhodamine B assay; format: functional; details: HCT-116, 48 h, read-out: GI
[27] = test system: HT-29; assay: Growth inhibition of human HT-29 cells at 10 uM after 48 hrs by sulforhodamine B assay; format: functional; details: HT-29, 48 h, read-out: GI
[28] = test system: A549; assay: Growth inhibition of human A549/ATCC cells after 48 hrs by sulforhodamine B assay; format: functional; details: A549, 48 h
[29] = test system: SR; assay: Growth inhibition of human SR cells at 10 uM after 48 hrs by sulforhodamine B assay; format: functional; details: read-out: GI
[30] = Growth inhibition of human HL-60(TB) cells at 10 uM after 48 hrs by sulforhodamine B assay; format: functional; details: HL-60, 48 h, read-out: GI
[31] = test system: HT-29; assay: Antiproliferative activity against human HT-29 cells at 10 uM after 72 hrs by MTS assay; format: functional; details: HT-29, 72 h
[32] = test system: MDA-MB-435; assay: Growth inhibition of human MDA-MB-435 cells after 48 hrs by sulforhodamine B assay; format: functional; details: MDA-MB-435, 48 h
[33] = Growth inhibition of human Caki1 cells at 10 uM after 48 hrs by sulforhodamine B assay; format: functional; details: CAKI-1, 48 h, read-out: GI
[34] = target: Tubulin (Bos taurus, UniProt Q6B856+Q862L2+Q862F3); assay: Inhibition of bovine tubulin polymerization after 1 hr by fluorescence spectrometry; format: protein assay
[35] = Growth inhibition of human SNB75 cells at 10 uM after 48 hrs by sulforhodamine B assay; format: functional; details: SNB-75, 48 h, read-out: GI
[36] = test system: NCI-H522; assay: Growth inhibition of human NCI-H522 cells after 48 hrs by sulforhodamine B assay; format: functional; details: NCI-H522, 48 h
[37] = Growth inhibition of human NCI-ADR-RES cells after 48 hrs by sulforhodamine B assay; format: functional
[38] = test system: HUVEC; assay: Inhibition of cell invasion of HUVEC at 1 uM after 24 hrs by crystal violet staining based Boyden chamber assay; format: functional; details: Homo sapiens
[39] = test system: MDA-MB-468; assay: Growth inhibition of human MDA-MB-468 cells at 10 uM after 48 hrs by sulforhodamine B assay; format: functional; details: MDA-MB-468, 48 h, read-out: GI
[40] = test system: A498; assay: Growth inhibition of human A498 cells at 10 uM after 48 hrs by sulforhodamine B assay; format: functional; details: A498, 48 h, read-out: GI
[41] = Growth inhibition of human HL-60(TB) cells after 48 hrs by sulforhodamine B assay; format: functional; details: HL-60, 48 h
[42] = test system: HUVEC; assay: Cytotoxicity against HUVEC assessed as inhibition of cell proliferation after 72 hrs by MTS assay; format: cell-based; details: Homo sapiens
[43] = Growth inhibition of human OVCAR3 cells after 48 hrs by sulforhodamine B assay; format: functional; details: OVCAR-3, 48 h
[44] = test system: HUVEC; assay: Antiangiogenic activity in HUVEC assessed as disruption of capillaries after 6 hrs by inverted microscopic analysis; format: functional, cell-based; details: Homo sapiens
[45] = test system: MDA-MB-435; assay: Cytotoxicity against human MDA-MB-435 cells assessed as cell growth at 10 uM after 48 hrs by sulforhodamine B assay; format: functional; details: MDA-MB-435, 48 h, read-out: Activity
[46] = test system: MDA-MB-468; assay: Growth inhibition of human MDA-MB-468 cells after 48 hrs by sulforhodamine B assay; format: functional; details: MDA-MB-468, 48 h
[47] = Growth inhibition of human HCT15 cells at 10 uM after 48 hrs by sulforhodamine B assay; format: functional; details: HCT-15, 48 h, read-out: GI

With `COc1ccc(-c2nnc3n(C)c(=O)c4ccccc4n23)cc1O` the GI50 [1] was 6420 nM, the inhibition of growth at 10 µM [2] was 83% and the inhibition of growth at 10 µM [3] was 100%. It also gave a GI50 [4] of 125 nM, an inhibition of growth at 10 µM [5] of 93% and a GI50 [6] of 1990 nM. The GI50 [7] was 3820 nM, the GI50 [8] was 41 nM and the inhibition at 0.1 µM [9] was 36%. The GI50 [10] was 57 nM, the growth at 10 µM [11] was 16% and the GI50 [12] was 2360 nM. The GI50 [13] was 31 nM, the GI50 [14] was 40 nM and the inhibition of growth at 10 µM [15] was 85%. It also gave an inhibition of growth at 10 µM [16] of 81%, an inhibition of growth at 10 µM [17] of 75% and an inhibition of growth at 10 µM [18] of 100%. For the same compound, the inhibition of growth at 10 µM [19] was 82%, the inhibition of growth at 10 µM [20] was 82% and the GI50 [21] was 1430 nM. The Activity [22] was “Non-toxic”, the GI50 [23] was 1220 nM and the GI50 [24] was 4310 nM. It also gave an inhibition of growth at 10 µM [25] of 90%, an inhibition of growth at 10 µM [26] of 86% and an inhibition of growth at 10 µM [27] of 81%. It also gave a GI50 [28] of 1840 nM, an inhibition of growth at 10 µM [29] of 95% and an inhibition of growth at 10 µM [30] of 100%. The inhibition at 10 µM [31] was 71%, the GI50 [32] was 23 nM and the inhibition of growth at 10 µM [33] was 66%. The IC50 [34] was 150 nM, the inhibition of growth at 10 µM [35] was 88% and the GI50 [36] was 31 nM. The GI50 [37] was 62 nM, the inhibition at 1 µM [38] was 89% and the inhibition of growth at 10 µM [39] was 70%. It also gave an inhibition of growth at 10 µM [40] of 66%, a GI50 [41] of 64 nM and an IC50 [42] of 2480 nM. For the same compound, the GI50 [43] was 45 nM, the Activity [44] was “Dose-dependent effect” and the growth at 10 µM [45] was 62%. The GI50 [46] was 4330 nM and the inhibition of growth at 10 µM [47] was 81%.

— ChEMBL document CHEMBL3792284, “Synthesis of triazoloquinazolinone based compounds as tubulin polymerization inhibitors and vascular disrupting agents” (Eur J Med Chem, 2016)
